Values quoted from earlier work, collected in patent publication US8734826B2 (priority 2005, dated 2014).
Where two headings read alike, the source gives them in different places.

Assays:
[1] = tested on: internal anal sphincter smooth muscle
[2] = tested on: anal fissure; conditions: in vivo
[3] = tested on: anal sphincter; conditions: in vivo
[4] = tested on: pre-synaptic cholinergic nerve terminals; conditions: in vivo
[5] = in vivo

O=[N+]([O-])O[C@H]1CO[C@H]2[C@@H]1OC[C@H]2O[N+](=O)[O-] [isorbide dinitrate]
relaxation of internal anal sphincter smooth muscle [1]: cause a relaxation of internal anal sphincter smooth muscle
pain reduction and fissure healing [2]: pain reduction and increased fissure healing

CC(C)(C)NCC(O)c1ccc(O)c(CO)c1 (centres unmarked) [salbutamol]
resting anal pressure [3]: reduce resting anal pressure

CC(C[N+](C)(C)C)OC(N)=O (centres unmarked) [bethanecol]
resting anal pressure [3]: reducing resting anal pressure
healing of anal fissures [2]: increased healing of anal fissures

Botulinum toxin
duration of clinical weakening of the muscle [4]: 3 to 4 months
voluntary squeeze pressure [3]: reduction in voluntary squeeze pressure
peri-anal thrombosis [5]: peri-anal thrombosis has been reported in some patients
fissure healing [2]: healing of the fissure
pain and fissure healing [2]: reduced pain and promoted fissure healing

N=C(N)NCCC[C@H](N)C(=O)O [L-arginine]
resting anal pressure [3]: causes a reduction in resting anal pressure

O=[N+]([O-])OCC(CO[N+](=O)[O-])O[N+](=O)[O-] [nitroglycerin]
relaxation of internal anal sphincter smooth muscle [1]: cause a relaxation of internal anal sphincter smooth muscle
pain reduction and fissure healing [2]: pain reduction and increased fissure healing

COc1ccc([C@@H]2Sc3ccccc3N(CCN(C)C)C(=O)[C@@H]2OC(C)=O)cc1 [diltiazem]
resting anal pressure [3]: reduce resting anal pressure
resting anal pressure ([3]; po): caused a reduction in resting anal pressure
fissure healing [2]: results in fissure healing

O=C(NC1CCN(CCc2c[nH]c3ccccc23)CC1)c1ccccc1 [indoramin]
resting anal pressure ([3]; po): reduce resting anal pressure
